± gives the expanded uncertainty stated by the source.
Conditions: 101.33 kPa, Liquid; for electrical conductivity: the complex impedance method; for mass density: Vibrating tube method

Structure (SMILES): CC[N+](C)(CC)CCOC.F[B-](F)(F)F
- electrical conductivity (263.15 K): 0.0055 ± 0.0001 S/m
- electrical conductivity (273.15 K): 0.0156 ± 0.0002 S/m
- viscosity (283.15 K): 1350 ± 240 mPa·s
- mass density (283.15 K): 1188.2 ± 1.5 kg/m3
- electrical conductivity (283.15 K): 0.0381 ± 0.0004 S/m
- viscosity (288.15 K): 890 ± 140 mPa·s
- mass density (288.15 K): 1184.8 ± 1.5 kg/m3
- viscosity (293.15 K): 604 ± 81 mPa·s
- mass density (293.15 K): 1181.3 ± 1.5 kg/m3
- electrical conductivity (293.15 K): 0.0821 ± 0.0008 S/m
- viscosity (298.15 K): 422 ± 49 mPa·s
- mass density (298.15 K): 1177.8 ± 1.5 kg/m3
- viscosity (303.15 K): 303 ± 30 mPa·s
- mass density (303.15 K): 1174.4 ± 1.5 kg/m3
- electrical conductivity (303.15 K): 0.153 ± 0.002 S/m
- viscosity (308.15 K): 222 ± 18 mPa·s
- mass density (308.15 K): 1171 ± 1.5 kg/m3
- viscosity (313.15 K): 167 ± 11 mPa·s
- mass density (313.15 K): 1167.7 ± 1.5 kg/m3
- electrical conductivity (313.15 K): 0.262 ± 0.003 S/m
- viscosity (318.15 K): 128 ± 7 mPa·s
- mass density (318.15 K): 1164.4 ± 1.5 kg/m3
- viscosity (323.15 K): 99.7 ± 3.9 mPa·s
- mass density (323.15 K): 1161.1 ± 1.5 kg/m3
- electrical conductivity (323.15 K): 0.414 ± 0.004 S/m
- viscosity (328.15 K): 79.1 ± 2.1 mPa·s
- mass density (328.15 K): 1157.9 ± 1.5 kg/m3
- viscosity (333.15 K): 63.7 ± 1.1 mPa·s
- mass density (333.15 K): 1154.7 ± 1.5 kg/m3
- electrical conductivity (333.15 K): 0.612 ± 0.006 S/m
- viscosity (338.15 K): 52 ± 0.6 mPa·s
- mass density (338.15 K): 1151.4 ± 1.5 kg/m3
- viscosity (343.15 K): 43 ± 0.7 mPa·s
- mass density (343.15 K): 1148.2 ± 1.5 kg/m3
- electrical conductivity (343.15 K): 0.857 ± 0.009 S/m
- viscosity (348.15 K): 36 ± 0.6 mPa·s
- mass density (348.15 K): 1145 ± 1.4 kg/m3
- viscosity (353.15 K): 30.5 ± 0.5 mPa·s
- mass density (353.15 K): 1141.8 ± 1.4 kg/m3
- electrical conductivity (353.15 K): 1.16 ± 0.01 S/m

Structure (SMILES): CC[N+](C)(CC)CCOC.O=S(=O)([N-]S(=O)(=O)C(F)(F)F)C(F)(F)F
- electrical conductivity (234.15 K): 0.00083 ± 1e-05 S/m
- electrical conductivity (243.15 K): 0.0033 ± 0.0001 S/m
- electrical conductivity (253.15 K): 0.0113 ± 0.0001 S/m
- electrical conductivity (263.15 K): 0.0301 ± 0.0003 S/m
- electrical conductivity (273.15 K): 0.0662 ± 0.0007 S/m
- viscosity (283.15 K): 166 ± 11 mPa·s
- mass density (283.15 K): 1420.6 ± 1.9 kg/m3
- electrical conductivity (283.15 K): 0.127 ± 0.001 S/m
- viscosity (288.15 K): 123 ± 6 mPa·s
- mass density (288.15 K): 1416.1 ± 1.9 kg/m3
- viscosity (293.15 K): 92.7 ± 3.3 mPa·s
- mass density (293.15 K): 1411.5 ± 1.9 kg/m3
- electrical conductivity (293.15 K): 0.216 ± 0.002 S/m
- viscosity (298.15 K): 71.8 ± 1.6 mPa·s
- mass density (298.15 K): 1406.9 ± 1.9 kg/m3
- viscosity (303.15 K): 56.8 ± 0.8 mPa·s
- mass density (303.15 K): 1402.3 ± 1.9 kg/m3
- electrical conductivity (303.15 K): 0.336 ± 0.003 S/m
- viscosity (308.15 K): 45.7 ± 0.8 mPa·s
- mass density (308.15 K): 1397.7 ± 1.9 kg/m3
- viscosity (313.15 K): 37.4 ± 0.6 mPa·s
- mass density (313.15 K): 1393.2 ± 1.9 kg/m3
- electrical conductivity (313.15 K): 0.488 ± 0.005 S/m
- viscosity (318.15 K): 31 ± 0.5 mPa·s
- mass density (318.15 K): 1388.6 ± 1.9 kg/m3
- viscosity (323.15 K): 26.1 ± 0.4 mPa·s
- mass density (323.15 K): 1384 ± 1.9 kg/m3
- electrical conductivity (323.15 K): 0.67 ± 0.007 S/m
- viscosity (328.15 K): 22.2 ± 0.4 mPa·s
- mass density (328.15 K): 1379.5 ± 1.9 kg/m3
- viscosity (333.15 K): 19.1 ± 0.3 mPa·s
- mass density (333.15 K): 1375 ± 1.9 kg/m3
- electrical conductivity (333.15 K): 0.869 ± 0.009 S/m
- viscosity (338.15 K): 16.6 ± 0.3 mPa·s
- mass density (338.15 K): 1370.5 ± 1.8 kg/m3
- viscosity (343.15 K): 14.5 ± 0.3 mPa·s
- mass density (343.15 K): 1366.1 ± 1.8 kg/m3
- electrical conductivity (343.15 K): 1.09 ± 0.01 S/m
- viscosity (348.15 K): 12.8 ± 0.2 mPa·s
- mass density (348.15 K): 1361.7 ± 1.8 kg/m3
- viscosity (353.15 K): 11.4 ± 0.2 mPa·s
- mass density (353.15 K): 1357.3 ± 1.8 kg/m3
- electrical conductivity (353.15 K): 1.33 ± 0.01 S/m
